Assay results as given in article PMC6576746, “Rational discovery of dual-indication multi-target PDE/Kinase inhibitor for precision anti-cancer therapy using structural systems pharmacology” (PLoS Computational Biology, 2019).

How the values were obtained:
Assay in all cases: cells
Parameters in all cases: species or system panel of human cancer cell lines; Eurofins OncoPanel proliferation; nuclei count by high-content fluorescence imaging, 10-point dose response
SW954 = conditions: Homo sapiens, SW 954, 72 h, cell count, 3 days
Outline: (§1)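 Ten half-log concentrations from 100 μM (0.1% DMSO max) applied one day post-seeding, 3-day exposure at 37°C; untreated time-zero plate for GI50. Readout is nuclear cell count by automated fluorescence imaging, giving EC50, IC50, GI50 and 0–10 activity area.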

SW620 = conditions: Homo sapiens, SW-620, 72 h, cell count, 3 days
Outline: as §1

DLD-1 = conditions: Homo sapiens, DLD-1, 72 h, cell count, 3 days
Outline: as §1

A388 = conditions: 72 h, cell count, 3 days
Outline: as §1

Hs 688(A).T = conditions: 72 h, cell count, 3 days
Outline: as §1

SR = conditions: Homo sapiens, SR, 72 h, cell count, 3 days
Outline: as §1

TF-1 = conditions: Homo sapiens, TF-1, 72 h, cell count, 3 days
Outline: as §1

Hs 936.T(C1) = conditions: 72 h, cell count, 3 days
Outline: as §1

BFTC-905 = conditions: Homo sapiens, BFTC-905, 72 h, cell count, 3 days
Outline: as §1

SU-DHL-8 = conditions: Homo sapiens, SU-DHL-8, 72 h, cell count, 3 days
Outline: as §1

G-401 = conditions: Homo sapiens, G-401, 72 h, cell count, 3 days
Outline: as §1

PSN-1 = conditions: Homo sapiens, PSN1, 72 h, cell count, 3 days
Outline: as §1

LS513 = conditions: Homo sapiens, LS-513, 72 h, cell count, 3 days
Outline: as §1

NAMALWA = conditions: 72 h, cell count, 3 days
Outline: as §1

[1] = 50% of maximum possible response

C[C@@H]1CC(=O)NN=C1c1ccc(NN=C(C#N)C#N)cc1 [levosimendan]
IC50 (SW954; [1]): 22.5 µM
GI50 (SW954; corrected for time zero): 20.5 µM
EC50 (SW954; curve inflection point): 22 µM
IC50 (SW620; [1]): 19.7 µM
GI50 (SW620; corrected for time zero): 14.9 µM
EC50 (SW620; curve inflection point): 18.7 µM
IC50 (DLD-1; [1]): 25.1 µM
GI50 (DLD-1; corrected for time zero): 23.7 µM
EC50 (DLD-1; curve inflection point): 23.9 µM
IC50 (A388; [1]): 61.1 µM
GI50 (A388; corrected for time zero): 48.4 µM
EC50 (A388; curve inflection point): 61.1 µM
IC50 (Hs 688(A).T; [1]): > 100 µM
GI50 (Hs 688(A).T; corrected for time zero): 10.5 µM
EC50 (Hs 688(A).T; curve inflection point): 16 µM
IC50 (SR; [1]): 16.1 µM
GI50 (SR; corrected for time zero): 14.7 µM
EC50 (SR; curve inflection point): 15.6 µM
IC50 (TF-1; [1]): 41.7 µM
GI50 (TF-1; corrected for time zero): 19.7 µM
EC50 (TF-1; curve inflection point): 41.7 µM
IC50 (Hs 936.T(C1); [1]): > 100 µM
GI50 (Hs 936.T(C1); corrected for time zero): > 100 µM
EC50 (Hs 936.T(C1); curve inflection point): > 100 µM
IC50 (BFTC-905; [1]): 13.4 µM
GI50 (BFTC-905; corrected for time zero): 12.4 µM
EC50 (BFTC-905; curve inflection point): 13.4 µM
IC50 (SU-DHL-8; [1]): 604 nM
GI50 (SU-DHL-8; corrected for time zero): 512 nM
EC50 (SU-DHL-8; curve inflection point): 604 nM
IC50 (G-401; [1]): 5.47 µM
GI50 (G-401; corrected for time zero): 4.83 µM
EC50 (G-401; curve inflection point): 5.34 µM
IC50 (PSN-1; [1]): 12.8 µM
GI50 (PSN-1; corrected for time zero): 11.6 µM
EC50 (PSN-1; curve inflection point): 11.8 µM
IC50 (LS513; [1]): 17.2 µM
GI50 (LS513; corrected for time zero): 14.7 µM
EC50 (LS513; curve inflection point): 17.2 µM
IC50 (NAMALWA; [1]): 12.5 µM
GI50 (NAMALWA; corrected for time zero): 11.3 µM
EC50 (NAMALWA; curve inflection point): 12.5 µM
